# Test results reported in patent US20220296555A1, “ACYLATED ACTIVE AGENTS AND METHODS OF THEIR USE FOR THE TREATMENT OF METABOLIC DISORDERS AND NONALCOHOLIC FATTY LIVER DISEASE” (Flagship Pioneering Innovations V, Inc., priority 2019, published 2022).
# Columns and labels:
# [1] = system: differentiated mouse 3T3-L1 cells; test: Mouse adipocyte lipolysis assay (Lipolysis Assay Kit, ZenBio); type: cell-based; conditions: 24 hours post-treatment, 3T3-L1 adipocytes
# Experimental: Mouse 3T3-L1 cells were obtained from ATCC and cultured in Dulbecco's Modified Eagle's medium (DMEM) containing 10% newborn calf serum (NCS) and penicillin/streptomycin(P/S) at 37° C. in an incubator with 5% CO2. Once the cells became confluent, they were seeded into a tissue culture treated 96 well plate. Then, differentiation was initiated by using DMEM containing 10% fetal bovine serum, P/S, IBMX, dexamethasone, and insulin. After 14 days of differentiation, cells were treated with compounds of interest. After 24 hours post-treatment, the cell viability was assessed using CellTiter-Glo Luminescent Cell Viability Assay from Promega, and lipolysis was determined using Lipolysis Assay Kit from ZenBio. […] Table 1 lists the compounds that reduced the release of free fatty acids and glycerol (+, ++, or +++). The lipolytic rate of white adipose tissue is associated with metabolic dysfunction including insulin resistance and liver steatosis. Compounds that lower lipolysis of adipocytes may improve metabolic function including improving insulin sensitivity and reducing liver steatosis, thus improving outcomes in subjects with diabetes mellitus (e.g., prediabetes or type II diabetes), obesity, and hyperlipidemia.
# [2] = system: mouse myocyte; test: Mouse myocyte lipolysis assay; type: cell-based; conditions: differentiated myocytes
# Experimental: Cells were obtained from ATCC and cultured in Dulbecco's Modified Eagle's medium (DMEM) containing 20% fetal bovine serum and 1% penicillin/streptomycin at 37° C. in an incubator with 5% CO2. Once the cells became confluent, they were seeded into a tissue culture treated 96 well plate. The next day, the medium containing DMEM with 2% equine serum was used to start differentiation. Table 2 lists the tested compounds including those that reduced the release of glycerol (+, ++, or +++). The lipolytic rate of muscle triglycerides is associated with metabolic dysfunction including insulin resistance and liver steatosis. Compounds that lower lipolysis of adipocytes may improve metabolic function including improving insulin sensitivity and reducing liver steatosis, thus improving outcomes in patients with diabetes mellitus (e.g., prediabetes or type II diabetes) obesity, and hyperlipidemia.
# [3] = Assay 1. Stability in Simulated Gastric Fluid (SGF); type: in vitro ADME; conditions: SGF pH 1.6 with pepsin, 1 μM, 37° C.
# Experimental: Assay 1. Stability of conjugates in Simulated Gastric Fluid (SGF). This assay was used to assess the stability of an acylated cinnamic acid in a stomach.
# Medium was prepared by dissolving 2 g of sodium chloride in 0.6 L in ultrapure water (MilliQ®, Millipore Sigma, Darmstadt, Germany). The pH was adjusted to 1.6 with 1N hydrochloric acid, and the volume was then adjusted to 1 L with purified water.
# 60 mg FaSSIF powder (Biorelevant™, London, UK) were dissolved in 500 mL buffer (above). Pepsin was added (0.1 mg/mL) (Millipore Sigma, Darmstadt, Germany), and the solution was stirred. The resulting SGF media were used fresh for each experiment.
# A test compound was dissolved in DMSO stock to 1 mM. An aliquot of the DMSO stock solution was removed and diluted in the SGF Media in 15 mL falcon tubes to generate a total compound concentration of 1 μM. A 1 mL aliquot was immediately removed and diluted once with 1 volume of acetonitrile for T0 timepoint. The mixture was sealed and mixed at 37° C. in an incubator. Aliquots (1 mL) were removed at regular intervals and immediately quenched by the addition of 1 volume of acetonitrile. The resulting samples were analyzed by LC/MS to determine degradation rates in SGF.
# [4] = Assay 2. Stability in Simulated Intestinal Fluid (SIF); type: in vitro ADME; conditions: SIF pH 6.7 with pancreatin, 1 μM, 37° C.
# Experimental: Assay 2. Stability of conjugates in Simulated Intestinal Fluid (SIF). This assay was used to assess the stability of an acylated cinnamic acid in a small intestine.
# Phosphate buffer was prepared by dissolving 0.42 g of sodium hydroxide pellets and 3.95 g of monobasic sodium phosphate monohydrate and 6.19 g of sodium chloride in ultrapure water (MilliQ®, Millipore Sigma, Darmstadt, Germany). The pH was adjusted to 6.7 using aq. HCl and aq. NaOH, as necessary, and the solution was diluted with ultrapure water to produce 1 L of the pH 6.7 buffer.
# 112 mg FaSSIF powder (Biorelevant™, London, UK) was dissolved in 50 mL of the pH 6.7 buffer. 2 to 3 mL of the resulting solution were then added to 500 mg pancreatin (Millipore Sigma, Darmstadt, Germany). The resulting mixture was agitated by finger tapping the vessel containing the mixture until milky suspension formed. At this time, the remainder of the 50 mL FaSSiF/pH 6.7 buffer solution was added. The resulting suspension was flipped upside down 10 times to produce SIF, which was used fresh.
# A test compound was dissolved in DMSO stock to 1 mM. An aliquot of the DMSO stock solution was removed and diluted in the SIF media in 15 mL falcon tubes to produce a mixture with a tested compound concentration of 1 μM. […] The resulting samples were analyzed by LC/MS to determine degradation rates
# [5] = Assay 3. In vitro Colonic Material Stability Assay; type: in vitro ADME; conditions: colonic material slurry, anaerobic, 1 or 10 μM
# Experimental: Assay 3. In vitro Colonic Material Stability Assay. This assay was used to assess the stability of an acylated cinnamic acid in a large intestine. All experiments were performed in an anaerobic chamber containing 90% nitrogen, 5% hydrogen and 5% carbon dioxide. Colonic material was resuspended as a slurry (15% w/v final concentration) in pre-reduced, anaerobically sterilized dilution blanks (Anaerobe Systems AS-908). The colonic material was then inoculated into 96 well plates containing YCFAC media (Anaerobe Systems AS-680) or other suitable media (6.7 μL slurry into 1 mL total media). A test compound was added to an individual well to reach a final analyte concentration of 1 or 10 μM, and the material was mixed by pipetting. Sample was removed after set timepoints (0, 120, 240, 480, 1440, 2880 minutes after initiation of the assay), quenched with acetonitrile containing internal standard, and analyzed by LC/MS.
# [6] = system: C57BL/6 mice; test: In vivo evaluation in mice fed a high-fat diet (84-day study); design: species or system mouse
# Experimental: Animals were allowed free access to food and drinking water for the entire study. Animals were weighed on a regular basis, and food and drinking water consumption monitored. Plasma and stool samples were collected at the beginning of the study and 42 days into the study. Additional blood was drawn from fasted mice 58 days into the study. Insulin tolerance tests were performed 72 or 73 days into the study. Following an approximate 4 h fast, 0.5 Units/kg insulin was administered intraperitoneally. Blood was collected pre-insulin challenge (t=0) and at t=15, 30, 60, 90, and 120 min following insulin challenge. Oral glucose tolerance tests were performed 79 or 80 days into the study. Following an approximate 4 h fast, 2 g/kg glucose was administered by oral gavage. Blood was collected pre-insulin challenge (t=0) and at t=15, 30, 60, 90, and 120 min following glucose challenge. At the end of the study, body weight, food consumption, blood glucose, serum ALT levels, serum AST levels, serum cholesterol (total cholesterol. HDL, and LDL levels), serum triglycerides levels, liver triglyceride levels, liver cholesterol levels, liver weight, subcutaneous fat pad weight, and epididymal fat pad weight were measured in all mice.
compound,measurement,setting,value
O=C(O)/C=C/c1ccc(O)c(O)c1 [Caffeic acid],Lipolysis Free Fatty Acids % DMSO,[1]; 100 μM,+++ (50%≤: +++)
same,Lipolysis Glycerol % change,[1]; 100 μM,+++ (50%≤: +++)
same,Free glycerol % DMSO,[2]; 100 μM,+++ (50%<: +++)
"CC(=O)Oc1ccc(/C=C/C(=O)O)cc1OC(C)=O [compound 3, diacetyl caffeic acid]",Assay 1 (SGF) (% Remaining @ 1 hour),[3],C (>75% of the tested compound remaining)
same,Assay 2 (SIF) (% @ Remaining 4 hours),[4],A (<25% of the tested compound remaining)
same,Assay 3 (% Remaining at 24 h),[5],A (<25% of the tested compound remaining)
CC(=O)O[C@@H]1OC[C@@H](OC(C)=O)[C@H](OC(C)=O)[C@H]1OC(C)=O [compound 4],"metabolic markers (e.g., glucose tolerance, insulin tolerance, cholesterol levels)",[6]; mice fed high-fat diet + test article,improve metabolic markers
same,weight loss,"[6]; mice fed high-fat diet, over the study",induce weight loss
CCCC(=O)O [Butyric acid],Lipolysis Free Fatty Acids % DMSO,[1]; 3 mM,++ (50 >≤ 70%: ++)
same,Lipolysis Glycerol % change,[1]; 3 mM,++ (50 >≤ 70%: ++)
same,Free glycerol % DMSO,[2]; 3 mM,+++ (50%<: +++)
CCC(=O)O [Propionic acid],Lipolysis Free Fatty Acids % DMSO,[1]; 3 mM,+++ (50%≤: +++)
same,Lipolysis Glycerol % change,[1]; 3 mM,++ (50 >≤ 70%: ++)
same,Free glycerol % DMSO,[2]; 3 mM,++ (50 >< 70%: ++)
CC(=O)O [Acetic acid],Lipolysis Free Fatty Acids % DMSO,[1]; 1 mM,++ (50 >≤ 70%: ++)
same,Lipolysis Glycerol % change,[1]; 1 mM,+ (70% >≤90%: +)
same,Lipolysis Free Fatty Acids % DMSO,[1]; 3 mM,++ (50 >≤ 70%: ++)
same,Lipolysis Glycerol % change,[1]; 3 mM,+ (70% >≤90%: +)
same,Free glycerol % DMSO,[2]; 1 mM,= (90% >< 100%: =)
same,Free glycerol % DMSO,[2]; 3 mM,= (90% >< 100%: =)
